Literature values in patent US5834196A, “Method for detecting and/or optionally quantifying and/or separating apoptotic cells in or from a sample” (Nexins Research B.V., priority 1994, dated 1998).

Molecular target: annexin V
Details: phosphatidyl serine containing membranes; Ca^2+ dependent binding; given as an estimation

Kd: < 0.1 nM
Substance: phosphatidyl serine
